From patent publication US20080171350A1, “Neural Cell Differentiation Method From Es Cells” (NOVARTIS FORSCHUNGSSTIFTUNG, ZWEIGNIEDERLASSUNG FRIEDRICH …, priority 2004, published 2008)

Tested on: ES cells-derived neurons
Experiment: Whole-cell patch-clamp recordings on ES cells-derived neurons
Type: cell-based, mouse
Conditions: cells in culture for 10 and up to 22 days

## NS(=O)(=O)c1cccc2c1c([N+](=O)[O-])cc1nc(O)c(O)nc12 [NBQX]
  block of spontaneous synaptic currents (SSCs): blocking of synaptic currents
